The text below walks through data of publication PMC3609710 (Journal of chromatography. A, 2012).

Where two headings read alike, the source gives them in different places.

The format of the data set is in vivo, mouse (C57Bl/6). The conditions noted are these: mouse serum, single IP injection of T1AM 25 mg/kg.

Consider `O=C(O)Cc1ccc(Oc2ccc(O)cc2)cc1` [TA0, thyroacetic acid], for which, where the note is “at 6 hours post-injection”, the greatest serum concentration was 0.77 ± 0.16 µM.
Turning to `O=C(O)Cc1ccc(Oc2ccc(O)cc2)c(I)c1` [TA1, 3-iodothyroacetic acid], the serum concentration runs as follows: (10 minutes post-injection) 17.7 ± 4.6 µM; (20 minutes post-injection) 23.5 ± 13.2 µM.
For `NCCc1ccc(Oc2ccc(O)cc2)c(I)c1` [T1AM, 3-Iodothyronamine] the same measures were 16.6 ± 8.5 µM and 5.6 ± 3.1 µM.
